What is called melting point is the temperature of the solid-liquid transition. For the molecule `CC(C)(C)c1cc(CCc2ccccc2NC(=O)N2CCC3(CC2)OCCO3)cc(C(C)(C)C)c1O`, the melting point was 163 to 164 °C.

`CN1C(=O)CC[C@]2(C)c3ccc(Sc4cnccn4)cc3CC[C@@H]12` showed a melting point of 94 to 95 °C.

`CC(O)c1cc(Br)ccc1N` (configuration not stated) gave a melting point of 95 to 96 °C.

In turn, `CC(C)c1cccc(C(C)C)c1NS(=O)(=O)CC#N` showed a melting point of 195 to 197 °C.

The molecule `CC1=Nc2ccccc2CC(c2ccsc2C)N1C` (configuration not stated) had a melting point of 91 to 92 °C.

Take `COC(=O)Cc1cnc(-c2ccccc2)n1Cc1ccccc1`: the melting point lay in the range of 78 to 79 °C.

`CC(=O)SC(CC(=O)c1ccccc1C)C(=O)O` (configuration not stated): the melting point was in the range of 106 to 108 °C.

The molecule `CO[C@@H]1CN(CCC#N)CC[C@@H]1NC(=O)c1cc(Cl)c(N)c2c1OCC2` (relative stereo) returned a melting point of 191 °C.

In turn, `CCOC(=O)c1ccc(C=C2C=CN(CC)c3ccccc32)c([N+](=O)[O-])c1` had a melting point of 100 °C.

With `Cc1cc(C=O)c(OCCCCCCBr)c(C=O)c1`, the melting point is 46 °C.

The molecule `O=[N+]([O-])c1ccccc1Sc1ncc[nH]1` came in with a melting point of 137 to 138 °C.

Consider `CC(C)Nc1c([N+](=O)[O-])cnn1-c1ncc(Cl)cc1Cl`, for which the melting point came to 123 °C.

Molecule `COc1ccc2c(c1)[C@@H](O)[C@H](CN1CCC3(CC1)C(=O)NCN3c1ccccc1)CC2` (relative stereo) displayed a melting point of 216 to 218 °C.

In the case of `NNc1ccc2c(=O)n(Cc3ccccc3)cnc2c1`, the melting point was 165 to 169 °C.

Molecule `Nc1ccc(OCc2nc(Cl)ccc2Cl)cc1` gave a melting point of 74 to 75 °C.

`COC(=O)C1=C(C)Nc2ccccc2SC1c1cccc(Cl)c1Cl` (configuration not stated) yielded a melting point of 190 to 191 °C.

Turning to `O=C(CO)NC1CCC(CC2CCC(NC(=O)CO)CC2)CC1` (configuration not stated), the melting point is 149 to 151 °C.

`O=c1ccc(-c2ccc(F)cc2)nn1CCF` showed a melting point of 145 °C.

Consider `CCNC(=O)C(=O)[C@H](Cc1ccccc1)NC(=O)[C@H](CC(C)C)NC(=O)O[C@H]1CCOC1`, for which the melting point is 159 to 161 °C.

In the case of `Cc1c(CCN(C)C(=O)OC(C)(C)C)c2cc(S(=O)(=O)c3ccc(C(F)(F)F)cc3)ccc2n1C`, the melting point was in the range of 141 to 144 °C.

As to `CCN1CCCC1CNC(=O)c1ccc2c(c1)C(=O)C1(CC1)O2` (configuration not stated), the melting point was 161 to 166 °C.

As to `O=C(O)c1cccc2nc3ccc4[nH]ncc4c3nc12`, the melting point fell in the range of 305 to 310 °C.

In the case of `Cc1nc(-c2ccc(C(F)(F)F)cc2)sc1C(=O)NCc1ccc(OC(C)(C)C(=O)O)cc1`, the melting point is 130 to 131 °C.

`Fc1cnc(OC(c2ccnc3cc(Cl)ccc23)C(F)(F)F)nc1` (configuration not stated) had a melting point of 92 °C.

Turning to `CS(=O)(=O)c1ccc(-c2cnn(-c3ccc(F)c(F)c3)c(=O)c2-c2ccc(F)cc2)cc1`, the melting point lay in the range of 109 to 110 °C.

Molecule `O=C(O)c1cc2cc(Cl)ccc2nc1NC(Cc1cccc(F)c1)C(=O)O` (configuration not stated) yielded a melting point of 177 to 181 °C.

On to `Cc1c(C(F)(F)C(F)(F)C(F)(F)F)ncn1-c1ncc(C(F)(F)F)cc1Cl`, for which the melting point amounted to 62.5 °C.

`C=C(C)C(=O)Nc1ccc(NC(=O)C(F)(F)C(F)(F)C(F)(F)F)c(O)c1` showed a melting point of 247 to 250 °C.

The molecule `CCCCOc1nc(N)c2ncn(C3CCCCC3)c2n1` came in with a melting point of 138 to 141 °C.

The molecule `COc1cc(OC(=O)c2cccnc2)c2c(=O)c(OC)c(-c3ccc(OC(=O)c4cccnc4)c(OC)c3)oc2c1` yielded a melting point of 212 to 214 °C.

As for `Cc1cc(Cl)cc(C)c1NC(=O)N(CCC(C)(C)C)Cc1ccc(CC(C)(C)C)cc1`, the melting point lay within 148 to 150 °C.

`CC(C)(C)c1cc(C=Cc2cc(C=Cc3cc(C(C)(C)C)cc(C(C)(C)C)c3)cc(CBr)c2)cc(C(C)(C)C)c1` registered a melting point of 222 to 223 °C.

As for `O=C1CC(C(F)(F)F)CC(=O)N1c1cc(OS(=O)(=O)c2ccccc2)c(Cl)cc1F`, the melting point was 214 to 215 °C.

Molecule `N#Cc1ccc(Cl)c(N=Cc2ccccc2O)c1` gave a melting point of 147 to 148 °C.

The molecule `CCC(O)CN1CCC2(CC1)CSC1=C(O2)c2ccccc2C(=O)C1=O` (configuration not stated) displayed a melting point of 180 to 182 °C.

Molecule `Cn1ncc2ccccc2c1=O` registered a melting point of 111 to 112 °C.

In turn, `CC(=O)NC[C@H]1CN(c2ccc(N3C[C@H]4CN(C(=O)c5cc6ccccc6[nH]5)C[C@H]4C3)c(F)c2)C(=O)O1` yielded a melting point of 211 °C.

`Cc1c(-c2ccc(OCc3ccccc3)cc2)n(C(=O)c2ccc(OCCN3CCCCC3)cc2)c2ccc(OCc3ccccc3)cc12` gave a melting point of 48 to 51 °C.

Take `CNN(Cc1ccccc1N)c1ccccc1`: the melting point was 57 to 59 °C.

In turn, `O=C1c2c(Cl)cccc2-n2cnc(-c3noc(CN(C4CCCCC4)C4CCCCC4)n3)c2[C@@H]2CCN12` showed a melting point of 155 to 185 °C.

Molecule `CCCCCCCCCCC1CCCC1C(=O)Nc1cccc2ncccc12` (configuration not stated) returned a melting point of 75 °C.

Molecule `COc1ccccc1N1CCN(CCNc2ccccc2OC(F)(F)F)CC1` came in with a melting point of 69.5 to 71 °C.

Turning to `OCCCOc1cccc(NC(=S)NCC(F)(F)F)n1`, the melting point is 123 to 124 °C.

Turning to `CC(C)(C)OC(=O)c1nc(-c2ccc(Cl)cc2Cl)n(-c2ccc(Cl)cc2)c1Br`, the melting point fell in the range of 198 to 200 °C.

Regarding `COc1ccc2cc([C@H](C)C(=O)OC/C=C\CO)ccc2c1`, the melting point was in the range of 69 to 71 °C.

With `Cc1c(NC(=O)NCCCO)c(C)c2c(c1-c1ccccc1)OCC2c1ccc(C(C)C)cc1` (configuration not stated), the melting point was 145 to 146 °C.

As for `CS(=O)(=O)c1ccc(-n2cc(C(F)(F)F)nc2-c2ccc(-c3ccco3)cc2)cc1`, the melting point was in the range of 82 to 84 °C.

Take `c1ccc(NN2CCc3ccccc3C2)nc1`: the melting point was 116 to 117 °C.

In turn, `CCCOc1ccccc1-c1nc2nc(N3CCOCC3)ncc2c(=O)[nH]1` had a melting point of 176 to 177 °C.

In the case of `CCOC(=O)c1cn(-c2ccc(F)cc2F)c2cc(F)c(F)c(C)c2c1=O`, the melting point is 161 to 164 °C.

`O=C(O)c1ccc2c(=O)[nH]c(=O)n(CCCCN3CCC(OC(c4ccccc4)c4ccccc4)CC3)c2c1` registered a melting point of 177 to 179 °C.

For the molecule `CCN(CC)C(=O)c1ccc(CCCCOCCCCCCN(Cc2ccccc2)CC(O)c2ccc(O)c3[nH]c(=O)ccc23)cc1` (configuration not stated), the melting point was in the range of 101 to 103 °C.

In the case of `O=[N+]([O-])c1ccc2c(c1)CCC(COC1CCCCO1)O2` (configuration not stated), the melting point stood at 66.4 °C.

In turn, `CN1CCN(CNc2nc(=O)n(CN3CCN(C)CC3)cc2F)CC1` registered a melting point of 165 to 166 °C.

Regarding `CCN(CC)CC#CCCC(=O)C(O)(c1ccccc1)C1CCCCC1` (configuration not stated), the melting point lay in the range of 112 to 115 °C.

In turn, `CCCCNC(=O)Nc1cccc2c1C(=O)c1c-2n[nH]c1-c1ccc(OC)cc1` registered a melting point of 252 °C.

Regarding `Cc1cccc(-c2cc(C(=O)O)n(C)n2)c1`, the melting point lay in the range of 150 to 153 °C.

Take `C#Cc1cccc(C2=CC(=O)NC2=O)c1`: the melting point fell in the range of 129 to 131 °C.

The molecule `Cc1ccc(-c2nc(C)ccc2N2CCN(c3ccc(C)cc3)CC2)cc1` returned a melting point of 131 to 139 °C.

Regarding `Cc1cccc(N2CCN(c3ccc(=O)[nH]n3)CC2)c1`, the melting point is 210 °C.

As to `CCCCCCCCCCOc1ccc(O)c(C(=O)OC)c1`, the melting point is 40 to 43 °C.

`Cc1oc2c(OC(C)C#N)cccc2c1C` (configuration not stated): the melting point was 53 to 55 °C.

As for `CCCCCCCC(=O)N(CCc1ccc(CCO)cc1)S(=O)(=O)c1ccc(Cl)cc1`, the melting point was found to be 55 °C.

The molecule `Sc1n[nH]c(-n2cccn2)n1` had a melting point of 245 to 247 °C.

Molecule `O=C(Nc1ccccc1)c1cccc(-c2ccnc3c(C(=O)c4cccs4)cnn23)c1` displayed a melting point of 211 to 212 °C.

`CS(=O)(=O)c1ccc(-c2cnn(-c3cccc(-c4ccc(F)cc4)c3)c(=O)c2-c2ccc(F)cc2)cc1` displayed a melting point of 222 to 225 °C.

With `COc1cnc(N2CCN(c3ccc([N+](=O)[O-])cc3)CC2)nc1`, the melting point worked out at 212 °C.

As for `COc1cc(C=Cc2nc3c(c(=O)n(C)c(=O)n3C)n2C)cc(OC)c1`, the melting point was 228 to 230 °C.

`c1csc(C2=NOCCS2)c1` displayed a melting point of 86 to 89 °C.

The molecule `N#CCc1cc(Br)ccc1Sc1ccccc1` yielded a melting point of 118 to 120 °C.

Molecule `Cc1c(NC(=O)CC(C)(C)C)cc2c(c1C)OC(C)(C)C2=O` gave a melting point of 175 to 176 °C.

In turn, `CC(C)Cn1c(=O)n(C)c(=O)c2c(S(=O)(=O)CCCC(=O)O)c(Cc3cccc4ccccc34)sc21` had a melting point of 174 to 175 °C.

`CCn1cc(C(=O)O)c(=O)c2ccc(Cl)c(C)c21` came in with a melting point of 221 to 222 °C.

In turn, `Cc1c(C)c(NCc2ccccc2)c2c(c1C)C(=O)C(C)(C)O2` displayed a melting point of 108 to 109 °C.

Take `COc1ccc2c(c1)c(CC(=O)OCC(=O)OC(C)(C)C)c(C)n2C(=O)c1ccc(Cl)cc1`: the melting point was 96 to 97 °C.

Molecule `COc1ccc(-c2[nH]nc3c2C(=O)c2c(NC(=O)CN4CCNCC4)cccc2-3)cc1` gave a melting point of 277 °C.

As to `CCOC(=O)C1=C(C)NC(C)=C(C(=O)OCC)C1c1csc2cc([N+](=O)[O-])ccc12`, the melting point lay within 191 to 194 °C.

In the case of `N#Cc1ccc2c(c1)C(n1ccccc1=O)=CC(CF)(CF)O2`, the melting point fell in the range of 174 to 175 °C.

Take `c1ccc(CCOc2ncnc3nc[nH]c23)cc1`: the melting point was in the range of 209 to 210 °C.

Regarding `CC(C)n1nc(-c2sc(NCc3ccccc3)nc2-c2ccccc2)ccc1=O`, the melting point lay within 157 to 158 °C.

In turn, `Cn1c2ccc(C=O)cc2c2sc3ccccc3c21` displayed a melting point of 188 to 190 °C.

Molecule `COc1ccc(-c2cc(=O)n(Cc3cccnc3)nc2-c2ccc(OC)cc2)cc1` registered a melting point of 167 to 168 °C.

In turn, `COc1ccc(C2(C)C(=O)c3c(N4CCN(C)CC4)cc(Cl)cc3N(Cc3cccc(N)c3)C2=O)cc1` (configuration not stated) registered a melting point of 90 to 93 °C.

Molecule `O=S=Nc1ccc(C(=O)Cl)cc1` had a melting point of 31 °C.

As to `CS(=O)(=O)OCCNc1cc(Cl)ccc1[N+](=O)[O-]`, the melting point lay in the range of 101 to 102 °C.

Turning to `Cn1c(=O)oc2cc(C(O)CBr)cnc21` (configuration not stated), the melting point lay in the range of 127 to 129 °C.

In turn, `CC(C)Oc1cccc(NC(=O)OCc2c(-c3ccccc3)c3cc(Cl)ccc3c(=O)n2C)c1` gave a melting point of 205 to 207 °C.

For the origin of these results see a melting point compilation (Tetko et al.; mined from patent text by program, amines drawn as free bases though some values may be those of a salt).
